According to ChEMBL document CHEMBL1201862, “PubChem BioAssay data set” (2004):
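96-well plates; 48 h exposure; 5 concentrations. Endpoints by linear interpolation between flanking doses. Not reached: highest tested concentration assigned. GI50 is the concentration that inhibits growth by half.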 The source made the active and inactive calls. Cut-off read from the data, not from the text of the source: active = GI50 up to about 1.1 µM and inactive = higher.

How the values were obtained:
Assay in all cases: NCI tumour cell line growth inhibition, 48 h
[1] = system: 786-0
[2] = system: A549
[3] = system: ACHN
[4] = system: CAKI-1
[5] = system: COLO 205
[6] = system: DLD-1
[7] = system: DMS-114
[8] = system: DMS-273
[9] = system: EKVX
[10] = system: HCC 2998
[11] = system: HCT-15
[12] = system: HL-60
[13] = system: HOP-18
[14] = system: HOP-62
[15] = system: HT-29
[16] = system: IGROV-1
[17] = system: KM-20L2
[18] = system: KM12
[19] = system: LOX IMVI
[20] = system: LXFL 529
[21] = system: M14
[22] = system: M19-MEL
[23] = system: Malme-3M
[24] = system: NCI-H226
[25] = system: NCI-H23
[26] = system: NCI-H460
[27] = system: NCI-H522
[28] = system: OVCAR-3
[29] = system: OVCAR-4
[30] = system: OVCAR-5
[31] = system: OVCAR-8
[32] = system: RPMI-8226
[33] = system: RXF 393
[34] = system: RXF 631
[35] = system: SF-268
[36] = system: SF-295
[37] = system: SF-539
[38] = system: SK-MEL-28
[39] = system: SK-MEL-2
[40] = system: SK-MEL-5
[41] = system: SK-OV-3
[42] = system: SN12C
[43] = system: SNB-19
[44] = system: SNB-75
[45] = system: SNB-78
[46] = system: SR
[47] = system: SW-620
[48] = system: TK-10
[49] = system: U-251
[50] = system: UACC-257
[51] = system: UACC-62
[52] = system: UO-31
[53] = system: XF498

For `COc1ccc(C=C(c2ccc(OCc3ccccc3)cc2)c2ccc(OCc3ccccc3)cc2)cc1`, the GI50 [1] was > 100 µM (inactive), the GI50 [2] was > 100 µM (inactive) and the GI50 [3] was > 100 µM (inactive). The GI50 [4] was > 100 µM (inactive), the GI50 [5] was > 100 µM (inactive) and the GI50 [6] was > 100 µM (inactive). The GI50 [7] was > 100 µM (inactive), the GI50 [8] was > 100 µM (inactive) and the GI50 [9] was > 100 µM (inactive). For the same compound, the GI50 [10] was > 100 µM (inactive), the GI50 [11] was > 100 µM and the GI50 [12] was > 100 µM (inactive). For the same compound, the GI50 [13] was > 100 µM (inactive), the GI50 [14] was > 100 µM (inactive) and the GI50 [15] was > 100 µM (inactive). The GI50 [16] was > 100 µM (inactive), the GI50 [17] was > 100 µM (inactive) and the GI50 [18] was > 100 µM (inactive). For the same compound, the GI50 [19] was > 100 µM (inactive), the GI50 [20] was > 100 µM (inactive) and the GI50 [21] was > 100 µM (inactive). The GI50 [22] was > 100 µM (inactive), the GI50 [23] was > 100 µM (inactive) and the GI50 [24] was > 100 µM (inactive). The GI50 [25] was > 100 µM (inactive), the GI50 [26] was > 100 µM (inactive) and the GI50 [27] was > 100 µM (inactive). The GI50 [28] was > 100 µM (inactive), the GI50 [29] was > 100 µM (inactive) and the GI50 [30] was > 100 µM (inactive). For the same compound, the GI50 [31] was > 100 µM (inactive), the GI50 [32] was > 100 µM (inactive) and the GI50 [33] was > 100 µM (inactive). For the same compound, the GI50 [34] was > 100 µM (inactive), the GI50 [35] was > 100 µM (inactive) and the GI50 [36] was > 100 µM (inactive). For the same compound, the GI50 [37] was > 100 µM (inactive), the GI50 [38] was > 100 µM (inactive) and the GI50 [39] was > 100 µM (inactive). For the same compound, the GI50 [40] was > 100 µM (inactive), the GI50 [41] was > 100 µM (inactive) and the GI50 [42] was > 100 µM (inactive). For the same compound, the GI50 [43] was > 100 µM (inactive), the GI50 [44] was > 100 µM (inactive) and the GI50 [45] was > 100 µM (inactive). For the same compound, the GI50 [46] was > 100 µM (inactive), the GI50 [47] was > 100 µM (inactive) and the GI50 [48] was > 100 µM (inactive). For the same compound, the GI50 [49] was > 100 µM (inactive), the GI50 [50] was > 100 µM (inactive) and the GI50 [51] was > 100 µM (inactive). The GI50 [52] was > 100 µM (inactive) and the GI50 [53] was > 100 µM (inactive).
